Assay results as given in patent US10597378B2 (priority 2017, dated 2020).

Legend:
[1] = target: T1, human mu-opioid receptor (Homo sapiens, UniProt P35372); experiment: cell-based; assay type: cell-based
T1 construct: expressed in transfected cells; host or cells: HEK-293 (HEK-MOR), kept under G418
Method: (§1) Cells (72,000 per well) were plated in 100 μl/well of DMEM in 96-well solid-bottom white plates (GIBCO) and 50 μl/well of drug in HBSS in the presence of forskolin and 3-isobutyl-1-methylxanthine at final concentrations of 1 μM and 500 μM, respectively. After 30 min of incubation at room temperature, the concentration of cyclic adenosine monophosphate was determined using a LANCE Ultra cAMP Assay kit (PerkinElmer).
As MOR belongs to the GPCR family, activation of MOR leads to a decrease in intracellular cAMP level.

[2] = target: T2, human NOP receptor (Homo sapiens, UniProt P41146); experiment: cAMP assay in CHO-K1 cells expressing human NOP (CHO-K1-NOP); assay type: cell-based; details: read-out: EC50 in decreasing the cAMP level
T2 construct: expressed in transfected cells; host or cells: CHO-K1 (CHO-K1-NOP)
From the text: In an exemplary in vitro assay for identifying NOP agonists, cells are engineered to overexpress NOP and are designed to detect changes in intracellular cAMP levels in response to agonist stimulation of the receptor. The enzyme donor-cAMP complex complements with the acceptor and forms an active enzyme. The active enzyme subsequently hydrolyzes a substrate to produce a chemiluminescent signal that is directly proportional to the amount of cAMP in the cells. These cells have thus been modified to work in an agonist mode.
as §1
It was measured using the PathHunter enzyme complementation assay in CHO-K1 cells expressing human NOP (CHO-K1-NOP).

[3] = test system: wild-type C57BL/6 (B6) mice; experiment: Tail flick test (acute thermal pain); assay type: in vivo, mouse
[4] = test system: B6 mice; experiment: Tail-clip test (mechanical pain); assay type: in vivo, mouse; details: wildtype B6 mice
Method: Each B6 mouse was placed in an acrylic box (10 cm in diameter, 30 cm high) and allowed to acclimate for 5 min before testing, and then a clip was applied 1-cm from the base of the tail. The latency to bite or grasp the clip was measured during the clip was applied to the tail. […] Regardless of the response to 20 s, a cut off time was set to avoid tissue damage.

[5] = test system: mice; experiment: Tolerance and cross-tolerance, tail-flick test after 5 days twice-daily treatment; assay type: in vivo, mouse; details: day 6, equianalgesic dose
[6] = Charcoal meal test (gastrointestinal transit); details: B6, mouse, in vivo, sc
Method: (§2) B6 mice were fasted for at least 16 h before the study with free access to water. In a charcoal meal test, various doses of drugs were administered to the mice 30 min prior to the administration of an aqueous activated charcoal suspension (10% activated charcoal+5% gum Arabic; 0.3 mL). After 30 min, the mice were euthanized by intraperitoneal administration of a ketamine/xylazine cocktail (Sigma) followed by cervical dislocation and the total length of migration of the charcoal meal was measured from the pylorus to the ileocecal junction of the small intestine. The length of the intestine from pylorus to the caecum and the distance traveled by the charcoal were measured. The migration index was expressed as percentage of the distance traveled by the peristaltic charcoal meal relative to the total length of the small intestine, calculated according to the following formula. % of Gastrointestinal transit=Distance Travelled by Charcoal Meal/Full Length of the Small Intestine×100%
(§3) Gastrointestinal propulsion was calculated as the percentage of the distance travelled by the charcoal meal relative to the total length of the small intestine, to control for individual variations. The percentage inhibition relative to the control was also calculated as: % Gastrointestinal Inhibition (GI)=(Control group−Drug-treated group)/Control group×100% […]

[7] = test system: B6 mice; experiment: Charcoal meal test (gastrointestinal transit); details: equianalgesic doses
Method: as §2, §3

[8] = test system: melanoma cell-implanted B6 mice; experiment: Cancer-induced pain, cold allodynia (acetone drop test); assay type: in vivo, mouse; details: PID18, 30 min after treatment
Method: In cancer-induced pain model, cold allodynia in mice was assessed by using the acetone test. Absolute acetone (100%) in a volume of 5 μL was placed on the base of the paw in mice. […]
The cold allodynia was tested using acetone drop test and mechanical allodynia was measured using the Von Frey test to examine the antinociceptive effects of each drug treatment.

[9] = test system: B6 mice; experiment: Respiratory function test; details: acute, equi-antinociceptive doses, 10-60 min
[10] = target: T3, MOR (Homo sapiens, UniProt P35372); experiment: cell-based; design: host or cells: CHO-K1 (CHO-K1-MOR)
Method: The PathHunter G protein-coupled receptor β-arrestin-2 assay (DiscoveRx) was performed according to the manufacturer's protocol. Briefly, when β-arrestin-2 translocates to the active receptor, complementary β-galactosidase fragments fused to the receptor and β-arrestin-2 interact to form a functional enzyme, which can be detected by chemiluminescence.
Cells (5,000 per well) were then seeded in black 384-well assay plates with a CP2 reagent (DiscoveRx) and incubated for 24 h before running the assay. After each treatment, cells were incubated at room temperature for 1.5 h, followed by the addition of 8 μl of the PathHunter Detection reagent (DiscoveRx) and incubated for 1 h. Luminescence was detected using a Victor 2 plate reader. Studies were performed on the same day and the same passage of cells was used to ensure accurate comparisons of data.
Opioid receptors have been reported to couple to G protein-independent β-arrestin-2-mediated pathways. […] The potency of the above three molecules in a β-arrestin-2 recruitment assay (PathHunter), which was based on enzyme complementation in Chinese hamster ovary (CHO)-K1 cells expressing human MOR (CHO-K1-MOR), was further examined.

[11] = target: T3, MOR; assay type: cell-based; design: host or cells: CHO-K1 (CHO-K1-MOR)
[12] = test system: B6 mice; experiment: Cardiovascular function test (tail cuff plethysmography); details: acute, equi-antinociceptive doses
[13] = test system: mice; experiment: Conditioned place preference (CPP) test, reinstatement of morphine CPP; details: challenge on reinstatement day (Day 21)

T3 sequence (P35372 whole entry, the tested form may be a part): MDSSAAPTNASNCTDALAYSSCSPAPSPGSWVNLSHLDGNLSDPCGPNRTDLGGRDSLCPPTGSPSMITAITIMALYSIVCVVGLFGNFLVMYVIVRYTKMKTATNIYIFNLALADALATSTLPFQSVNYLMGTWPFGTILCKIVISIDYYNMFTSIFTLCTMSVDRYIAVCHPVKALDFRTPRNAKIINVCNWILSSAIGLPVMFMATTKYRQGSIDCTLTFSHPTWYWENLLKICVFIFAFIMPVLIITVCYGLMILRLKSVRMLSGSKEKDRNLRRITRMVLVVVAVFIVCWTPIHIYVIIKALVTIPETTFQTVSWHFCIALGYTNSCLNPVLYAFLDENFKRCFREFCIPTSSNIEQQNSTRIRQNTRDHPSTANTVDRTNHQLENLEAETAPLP
T1 sequence (P35372 whole entry): as the sequence (P35372 whole entry, the tested form may be a part) above
T2 sequence (P41146 whole entry): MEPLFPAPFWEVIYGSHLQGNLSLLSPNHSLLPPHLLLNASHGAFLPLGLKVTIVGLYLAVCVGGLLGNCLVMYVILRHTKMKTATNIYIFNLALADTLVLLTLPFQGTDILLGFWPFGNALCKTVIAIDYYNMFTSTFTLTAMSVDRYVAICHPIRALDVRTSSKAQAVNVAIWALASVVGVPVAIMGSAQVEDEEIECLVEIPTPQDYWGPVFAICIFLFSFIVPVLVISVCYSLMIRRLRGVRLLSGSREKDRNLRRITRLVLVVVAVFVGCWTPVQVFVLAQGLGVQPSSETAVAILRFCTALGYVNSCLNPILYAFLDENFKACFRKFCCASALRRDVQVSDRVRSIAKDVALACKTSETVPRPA

CN1CCc2ccccc2C1CNC(=O)c1ccc(Cl)c(Cl)c1 (stereo not drawn) [Compound 67, 3,4-Dichloro-N-[(2-methyl-1,2,3,4-tetrahydro-1-isoquinolinyl)methyl]benzamide]
EC50 [1]: 0.63 nM
cAMP production [1]: significantly decreased cAMP production
EC50 [2]: 2.2 nM
ED50 ([3]; Mus musculus, sc, single subcutaneous injection, read-out: ED50 of antinociception): 0.78 mg/kg
time at which analgesic effects were exerted after acute injection ([3]; equi-antinociceptive doses, B6 mice): 10 min
antinociception (% of MPE, AUC) ([3]; single dose subcutaneous injection, 30-120 min): produced equi-antinociceptive effects at doses of 0.6-1.8 mg/kg
antinociception of mechanical pain [4]: higher antinociceptive effect with mechanical stimuli than morphine
antinociceptive effects on challenge in morphine-tolerant mice [5]: significant increase in antinociceptive effects
ED50 at 60 min [6]: 1.6 mg/kg
gastrointestinal dysfunction [7]: less gastrointestinal dysfunction than morphine
licking and shaking frequency [8]: less than that of morphine
respiratory frequency [9]: kept recovery of respiratory frequency after 30 min
EC50 [10]: 1900 nM
Emax of β-arrestin recruitment relative to morphine [10]: 3 fold
β-arrestin recruitment, comparison [10]: more β-arrestin recruitment than that in morphine but induced less β-arrestin recruitment than Met-5
MOR internalization [11]: approximately two-fold that of the maximal responses of morphine
cardiovascular function [12]: minimal effect on cardiovascular function
reinstatement of morphine CPP [13]: not Compound 67
